Measured values taken from the supplement of paper PMC10307832.

Assays:
Experiment in all cases: relative viability (nuclei count vs DMSO), 5 days (fraction); higher = more cells survive
[1] = compound: OCc1c[nH]c2ccccc12 [Indole-3-carbinol] + Nc1nc2[nH]cc(CCc3ccc(C(=O)N[C@@H](CCC(=O)O)C(=O)O)cc3)c2c(=O)[nH]1 [Pemetrexed] (partner 0.2 µM)
Procedure, shortened: (§1)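 The day after seeding in 1536-well plates, lung cancer cell lines were treated by pin tool with a single drug, or with a fixed anchor-drug dose together with five library-drug doses (not always all listed) in √10 steps. After 5 days, a combined fix-and-stain solution (final 0.05% Triton X-100, 1% formaldehyde, 1 ug/ml Hoechst) was added. Nuclei counted on 4× images gave relative viability as treated counts over vehicle counts, reported as the median of duplicate plates.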

[2] = compound: OCc1c[nH]c2ccccc12 [Indole-3-carbinol] + CC(=O)c1c(C)c2cnc(Nc3ccc(N4CCNCC4)cn3)nc2n(C2CCCC2)c1=O [Palbociclib] (partner 0.5 µM)
Procedure, shortened: as §1

[3] = compound: OCc1c[nH]c2ccccc12 [Indole-3-carbinol] + CC(C)C[C@H](NC(=O)[C@H](Cc1ccccc1)NC(=O)c1cnccn1)B(O)O [Bortezomib] (partner 0.002 µM)
Procedure, shortened: as §1

[4] = compound: OCc1c[nH]c2ccccc12 [Indole-3-carbinol] + Nc1ncn([C@H]2C[C@H](O)[C@@H](CO)O2)c(=O)n1 [Decitabine] (partner 2 µM)
Procedure, shortened: as §1

[5] = compound: OCc1c[nH]c2ccccc12 [Indole-3-carbinol] + COc1cc2c(Oc3ccc(NC(=O)C4(C(=O)Nc5ccc(F)cc5)CC4)cc3F)ccnc2cc1OCCCN1CCOCC1 [Foretinib] (partner 0.25 µM)
Procedure, shortened: as §1

| Cell Line | relative viability ([1]; first compound 0.253 µM) | relative viability ([1]; first compound 0.8 µM) | relative viability ([1]; first compound 2.53 µM) | relative viability ([1]; first compound 8 µM) | relative viability ([2]; first compound 0.253 µM) | relative viability ([2]; first compound 0.8 µM) | relative viability ([2]; first compound 2.53 µM) | relative viability ([2]; first compound 8 µM) | relative viability ([3]; first compound 0.253 µM) | relative viability ([3]; first compound 0.8 µM) | relative viability ([3]; first compound 2.53 µM) | relative viability ([3]; first compound 8 µM) | relative viability ([4]; first compound 0.253 µM) | relative viability ([4]; first compound 0.8 µM) | relative viability ([4]; first compound 2.53 µM) | relative viability ([4]; first compound 8 µM) | relative viability ([5]; first compound 0.253 µM) | relative viability ([5]; first compound 0.8 µM) | relative viability ([5]; first compound 2.53 µM) | relative viability ([5]; first compound 8 µM) |
| --- | --- | --- | --- | --- | --- | --- | --- | --- | --- | --- | --- | --- | --- | --- | --- | --- | --- | --- | --- | --- |
| NCI-H2085 | 0.965 | 0.927 | 0.932 | 0.758 | 0.469 | 0.492 | 0.451 | 0.439 | 1.07 | 1.15 | 1.14 | 0.967 | 0.5 | 0.63 | 0.483 | 0.506 | 0.781 | 1.11 | 0.879 | 0.865 |
| NCI-H2087 | 0.706 | 0.703 | 0.705 | 0.63 | 0.193 | 0.278 | 0.27 | 0.262 | 0.815 | 0.967 | 0.963 | 0.678 | 0.278 | 0.323 | 0.255 | 0.341 | 1.08 | 1.47 | 1.18 | 1.13 |
| NCI-H2126 | 0.664 | 0.746 | 0.624 | 0.651 | 0.299 | 0.366 | 0.362 | 0.34 | 1.11 | 1.11 | 1.1 | 1.1 | 0.6 | 0.601 | 0.547 | 0.54 | 1.05 | 1.23 | 1.25 | 1.06 |
| NCI-H2347 | 0.425 | 0.415 | 0.437 | 0.41 | 0.426 | 0.471 | 0.419 | 0.407 | 1.2 |  | 0.926 | 0.868 | 0.678 | 0.58 | 0.509 | 0.574 | 0.743 |  | 1.21 | 0.931 |
| NCI-H2405 | 1.15 | 1.04 | 0.972 | 1.03 | 0.513 | 0.554 | 0.553 | 0.491 | 0.985 | 0.983 | 1 | 0.963 | 0.829 | 0.711 | 0.852 | 0.635 | 1.07 | 1.07 | 1.04 | 0.997 |
| NCI-H3122 | 0.195 | 0.21 | 0.203 | 0.203 | 0.188 | 0.196 | 0.176 | 0.183 | 1.01 | 1.04 | 1.07 | 1.04 | 0.462 | 0.414 | 0.37 | 0.451 | 0.972 | 0.962 | 0.999 | 0.961 |
| PC-3 [JPC-3] | 1.17 | 1.16 | 0.958 | 1.15 | 0.574 | 0.568 | 0.557 | 0.507 | 0.851 | 0.89 | 0.863 | 0.741 | 0.868 | 0.832 | 0.91 | 0.809 | 1.07 | 1.05 | 1.02 | 0.967 |
| PC-14 | 0.14 | 0.127 | 0.13 | 0.146 | 0.538 | 0.509 | 0.541 | 0.462 | 0.878 | 0.971 | 0.85 | 0.874 | 0.201 | 0.196 | 0.276 | 0.23 | 0.961 | 0.842 | 0.987 | 0.913 |
| RERF-LC-KJ | 0.47 | 0.461 | 0.482 | 0.466 | 1.14 | 0.968 | 0.941 | 1.15 | 1.19 | 1.08 | 1.13 | 1.04 | 0.741 | 0.69 | 0.716 | 0.62 | 0.873 | 0.932 | 0.815 | 0.819 |
| SK-LU-1 | 1.02 | 1.03 | 1.09 | 1.02 | 0.404 | 0.36 | 0.383 | 0.372 | 1.32 | 1.03 | 1.35 | 0.987 | 0.689 | 0.626 | 0.757 | 0.719 | 0.851 | 0.836 | 0.911 | 0.763 |
| SW 1573 | 0.803 | 0.846 | 0.881 | 0.975 | 0.377 | 0.41 | 0.449 | 0.37 | 1.15 | 1.18 | 1.12 | 0.997 | 0.48 | 0.535 | 0.636 | 0.417 | 1.12 | 1.04 | 1.02 | 0.812 |
| UMC-11 | 0.787 | 0.757 | 0.751 | 0.717 | 0.338 | 0.34 | 0.319 | 0.32 | 0.748 | 0.726 | 0.757 | 0.904 | 0.608 | 0.638 | 0.709 | 0.593 | 0.914 | 1.1 | 1.05 | 1.09 |
